Experimental data taken from patent publication US8334382B2, “Substituted biaryl piperazinyl-pyridine analogues” (Neurogen Corporation, priority 2004, dated 2012).

These compounds were tested against T1, human capsaicin receptor (Homo sapiens, UniProt Q8NER1) (assay: Calcium mobilization assay, determination of antagonist activity). Conditions: capsaicin at EC50; cells expressing human capsaicin receptor; Example 6.
T1 construct: expressed in transfected cells; host or cells: HEK293, stably transfected with pBK-CMV construct
Type: cell-based
Summary of the method: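 IC50 is the antagonist level giving a 50% drop in the capsaicin (EC50) calcium signal, read by FLIPR in Fluo-3 AM-loaded stable HEK293 lines bearing full-length human receptor. Compounds at 1-5 µM final were preincubated 0.5-6 h, room temperature, dark, in KRH pH 7.4.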

T1 sequence (Q8NER1 whole entry): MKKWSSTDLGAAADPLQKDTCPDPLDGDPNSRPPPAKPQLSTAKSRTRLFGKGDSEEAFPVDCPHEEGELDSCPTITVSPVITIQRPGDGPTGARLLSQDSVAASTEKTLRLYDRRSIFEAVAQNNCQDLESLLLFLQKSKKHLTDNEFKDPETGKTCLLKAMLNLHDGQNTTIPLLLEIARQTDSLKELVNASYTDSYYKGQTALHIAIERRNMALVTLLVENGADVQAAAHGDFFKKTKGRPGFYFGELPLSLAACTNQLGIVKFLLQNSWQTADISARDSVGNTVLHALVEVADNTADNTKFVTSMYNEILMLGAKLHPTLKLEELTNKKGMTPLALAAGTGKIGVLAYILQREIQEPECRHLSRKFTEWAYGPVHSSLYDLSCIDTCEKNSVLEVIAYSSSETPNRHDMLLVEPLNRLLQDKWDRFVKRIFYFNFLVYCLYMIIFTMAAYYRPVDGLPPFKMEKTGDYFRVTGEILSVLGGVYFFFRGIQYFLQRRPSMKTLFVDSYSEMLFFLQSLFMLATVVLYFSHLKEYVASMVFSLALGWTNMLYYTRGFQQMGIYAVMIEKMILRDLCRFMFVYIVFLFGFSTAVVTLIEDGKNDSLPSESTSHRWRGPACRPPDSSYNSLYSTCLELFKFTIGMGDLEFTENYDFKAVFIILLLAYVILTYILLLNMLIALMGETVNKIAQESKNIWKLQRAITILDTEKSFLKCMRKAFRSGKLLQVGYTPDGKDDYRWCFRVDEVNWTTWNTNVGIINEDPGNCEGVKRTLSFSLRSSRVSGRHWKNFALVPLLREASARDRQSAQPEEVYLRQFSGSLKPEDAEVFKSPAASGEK

SMILES	IC50 [µM]
Cc1cc(C(=O)O)cnc1N1CCN(c2cc(-c3ccc(F)cc3)nc(N3CCC[C@H]3C)c2)[C@H](C)C1 [Example 172, 6-{4-[2-(4-Fluoro-phenyl)-6-(2-(R)-methyl-pyrrolidin-1-yl)-pyridin-4-yl]-3-(R)-methyl-piperazin-1-yl}-5-methyl-nicotinic acid]	≤ 1
C[C@@H]1CN(c2ncc(/C=C/CO)cc2Cl)CCN1c1cc(-c2ccc(F)c(Cl)c2)nc(N2CCC[C@H]2C)n1 (relative stereo) [Example 191, rel-(2E)-3-{5-chloro-6-[(3R)-4-{6-(3-chloro-4-fluorophenyl)-2-[(2R)-2-methylpyrrolidin-1-yl]pyrimidin-4-yl}-3-methylpiperazin-1-yl]pyridin-3-yl}prop-2-en-1-ol]	≤ 1
CCOC(=O)c1cccnc1N1CCN(c2cc(-c3ccc(F)c(Cl)c3)nc(N3CCOCC3)n2)CC1 [Example 1, 2-{4-[6-(3-Chloro-4-fluoro-phenyl)-2-morpholin-4-yl-pyrimidin-4-yl]-piperazin-1-yl}-nicotinic acid ethyl ester]	≤ 1
CCOC(=O)c1cnc(N2CCN(c3cc(-c4ccccc4)nc(N4CCCC4C)n3)[C@H](C)C2)c(C)c1 (stereo partly drawn) [Example 58, 5-Methyl-6-{3-(R)-methyl-4-[2-(2-methyl-pyrrolidin-1-yl)-6-phenyl-pyrimidin-4-yl]-piperazin-1-yl}-nicotinic acid ethyl ester]	≤ 1
CNCc1cnc(N2CCN(c3cc(-c4ccc(F)c(Cl)c4)nc(N4CCCC4C)n3)CC2)c(Cl)c1 (centres unmarked) [Example 11, (5-Chloro-6-{4-[6-(3-chloro-4-fluoro-phenyl)-2-(2-methyl-pyrrolidin-1-yl)-pyrimidin-4-yl]-piperazin-1-yl}-pyridin-3-ylmethyl)-methyl-amine]	≤ 1
COc1ccc([N+](=O)[O-])c(N2CCN(c3cc(-c4ccc(F)c(Cl)c4)nc(N4CCCC4C)n3)CC2)n1 (centres unmarked) [Example 22, 4-(3-Chloro-4-fluoro-phenyl)-6-[4-(6-methoxy-3-nitro-pyridin-2-yl)-piperazin-1-yl]-2-(2-methyl-pyrrolidin-1-yl)-pyrimidine]	≤ 1
C[C@@H]1CN(c2ncc(CCO)cc2Cl)CCN1c1cc(-c2ccc(F)c(Cl)c2)nc(N2CCC[C@H]2C)n1 [Example 185, 2-[5-chloro-6-((3R)-4-{6-(3-chloro-4-fluorophenyl)-2-[(2R)-2-methylpyrrolidin-1-yl]pyrimidin-4-yl}-3-methylpiperazin-1-yl)pyridin-3-yl]ethanol]	≤ 1
CCOC(=O)c1cnc(N2CCN(c3cc(-c4ccc(F)cc4)nc(N(C)C)n3)[C@H](C)C2)c(C)c1 [Example 62, 6-{4-[2-Dimethylamino-6-(4-fluoro-phenyl)-pyrimidin-4-yl]-3-(R)-methyl-piperazin-1-yl}-5-methyl-nicotinic acid ethyl ester]	≤ 1
Cc1cc(C(N)=O)cnc1N1CCN(c2cc(-c3ccccc3)nc(N3CCCC3C)n2)CC1 (centres unmarked) [Example 87, 5-Methyl-6-{4-[2-(2-methyl-pyrrolidin-1-yl)-6-phenyl-pyrimidin-4-yl]-piperazin-1-yl}-nicotinamide]	≤ 1
C[C@@H]1CN(c2ncc(C(=O)O)cc2Cl)CCN1c1cc(-c2ccc(F)c(Cl)c2)nc(N2CCC[C@H]2C)n1 [Example 103, 5-Chloro-6-{4-[6-(3-chloro-4-fluoro-phenyl)-2-(2-(R)-methyl-pyrrolidin-l-yl)-pyrimidin-4-yl]-3-(R)-methyl-piperazin-1-yl}-nicotinic acid]	≤ 1
CC1CCCN1c1nc(-c2cncc(Cl)c2)cc(N2CCN(c3ncc(C(=O)O)cc3Cl)C[C@H]2C)n1 (stereo partly drawn) [Example 52, 5-Chloro-6-{4-[6-(5-chloro-pyridin-3-yl)-2-(2-methyl-pyrrolidin-1-yl)-pyrimidin-4-yl]-3-(R)-methyl-piperazin-1-yl}-nicotinic acid]	≤ 1
CCCN1CCN(c2nc(-c3ccc(F)c(Cl)c3)cc(N3CCN(c4ncc(C(=O)O)cc4Cl)CC3)n2)CC1 [Example 17, 5-Chloro-6-{4-[6-(3-chloro-4-fluoro-phenyl)-2-(4-propyl-piperazin-1-yl)-pyrimidin-4-yl]-piperazin-1-yl}-nicotinic acid]	≤ 1
C[C@@H]1CN(c2ncc(C(=O)O)cc2Cl)CCN1c1cc(-c2ccc(F)cc2)nc(N2CCC[C@H]2CO)n1 [Example 156, 5-Chloro-6-{4-[6-(4-fluoro-phenyl)-2-(2-(S)-hydroxymethyl-pyrrolidin-1-yl)-pyrimidin-4-yl]-3-(R)-methyl-piperazin-1-yl}-nicotinic acid]	≤ 1
Cc1cccc(-c2cc(N3CCN(c4ncc(C(N)=O)cc4C)CC3)nc(N3CCCC3C)n2)c1 (centres unmarked) [Example 88, 5-Methyl-6-{4-[2-(2-methyl-pyrrolidin-1-yl)-6-m-tolyl-pyrimidin-4-yl]-piperazin-1-yl}-nicotinamide]	≤ 1
CC(C)N(C)c1nc(-c2ccc(F)cc2)cc(N2CCN(c3ncc(C(=O)O)cc3Cl)CC2)n1 [Example 160, 5-Chloro-6-{4-[6-(4-fluoro-phenyl)-2-(isopropyl-methyl-amino)-pyrimidin-4-yl]-piperazin-1-yl}-nicotinic acid]	≤ 1
CCOC(=O)c1cnc(N2CCN(c3cc(-c4cccc(C)c4)nc(N4CCCC4C)n3)[C@H](C)C2)c(C)c1 (stereo partly drawn) [Example 59, 5-Methyl-6-{3-(R)-methyl-4-[2-(2-methyl-pyrrolidin-1-yl)-6-m-tolyl-pyrimidin-4-yl]-piperazin-1-yl}-nicotinic acid ethyl ester]	≤ 1
Cc1cc(C(=O)O)cnc1N1CCN(c2cc(-c3ccc(F)c(Cl)c3)nc(N(C)C(C)C)n2)CC1 [Example 161, 6-{4-[6-(3-Chloro-4-fluoro-phenyl)-2-(isopropyl-methyl-amino)-pyrimidin-4-yl] - piperazin-1-yl}-5-methyl-nicotinic acid]	≤ 1
Cc1cc(C(=O)O)cnc1N1CCN(c2cc(-c3ccc(F)cc3)nc(N(C)C)n2)[C@H](C)C1 [Example 81, 6-{4-[2-Dimethylamino-6-(4-fluoro-phenyl) - pyrimidin-4-yl]-3-(R)-methyl-piperazin-1-yl}-5-methyl-nicotinic acid]	≤ 1
CC1CCCN1c1nc(-c2ccc(F)c(Cl)c2)cc(N2CCN(c3ncc(C(N)=O)cn3)CC2)n1 (centres unmarked) [Example 97, 2-{4-[6-(3-Chloro-4-fluoro-phenyl)-2-(2-methyl-pyrrolidin-1-yl)-pyrimidin-4-yl]-piperazin-1-yl}-pyrimidine-5-carboxylic acid amide]	≤ 1
Cc1cc(CC(=O)OC(C)(C)C)cnc1N1CCN(c2cc(-c3ccc(F)cc3)nc(N3CCC[C@H]3C)n2)[C@H](C)C1 (relative stereo) [Example 190, tert-butyl rel-{6-[(3R)-4-{6-(4-fluorophenyl)-2-[(2R)-2-methylpyrrolidin-1-yl]pyrimidin-4-yl}-3-methylpiperazin-1-yl]-5-methylpyridin-3-yl}acetate]	≤ 1

The remaining lines, values ahead:

IC50 [µM]	SMILES
≤ 1	Cc1cc(C(=O)N2CCCC2)cnc1N1CCN(c2cc(-c3ccc(F)cc3)nc(N3CCCC3C)n2)CC1 (centres unmarked) [Example 122, 4-(4-fluorophenyl)-2-(2-methylpyrrolidin-1-yl)-6-{4-[3-methyl-5-(pyrrolidin-1-ylcarbonyl)pyridin-2-yl]piperazin-1-yl}pyrimidine]
≤ 1	CC1CCCN1c1nc(-c2ccc(F)cc2)cc(N2CCN(c3ncc(C(=O)O)cc3Cl)CC2)n1 (centres unmarked) [Example 25, 5-Chloro-6-{4-[6-(4-fluoro-phenyl)-2-(2-methyl-pyrrolidin-1-yl)-pyrimidin-4-yl]-piperazin-1-yl}-nicotinic acid]
≤ 1	Cc1cc(C(=O)N2CCN(C)CC2)cnc1N1CCN(c2cc(-c3ccc(F)cc3)nc(N3CCCC3C)n2)CC1 (centres unmarked) [Example 131, 4-(4-fluorophenyl)-6-(4-{3-methyl-5-[(4-methylpiperazin-1-yl)carbonyl]pyridin-2-yl}piperazin-1-yl)-2-(2-methylpyrrolidin-1-yl)pyrimidine]
≤ 1	Cc1cc(C(=O)N2CCCCC2C)cnc1N1CCN(c2cc(-c3ccc(F)cc3)nc(N3CCCC3C)n2)CC1 (centres unmarked) [Example 128, 4-(4-fluorophenyl)-6-(4-{3-methyl-5-[(2-methylpiperidin-1-yl)carbonyl]pyridin-2-yl}piperazin-1-yl)-2-(2-methylpyrrolidin-1-yl)pyrimidine]
≤ 1	CC(=O)N1CCN(C(=O)c2cnc(N3CCN(c4cc(-c5ccc(F)cc5)nc(N5CCCC5C)n4)CC3)c(C)c2)CC1 (centres unmarked) [Example 134, 4-(4-{5-[(4-acetylpiperazin-1-yl)carbonyl]-3-methylpyridin-2-yl}piperazin-1-yl)-6-(4-fluorophenyl)-2-(2-methylpyrrolidin-1-yl)pyrimidine]
≤ 1	C[C@@H]1CCCN1c1nc(-c2ccc(F)cc2)cc(N2CCN(c3ncc(C(=O)O)cc3C(F)(F)F)CC2)n1 [Example 177, 6-{4-[6-(4-Fluoro-phenyl)-2-(2-(R)-methyl-pyrrolidin-1-yl)-pyrimidin-4-yl]-piperazin-1-yl}-5-trifluoromethyl-nicotinic acid]
≤ 1	Cc1cc(C(=O)NCC(F)(F)F)cnc1N1CCN(c2cc(-c3ccc(F)cc3)nc(N3CCCC3C)n2)CC1 (centres unmarked) [Example 120, 6-{4-[6-(4-fluorophenyl)-2-(2-methylpyrrolidin-1-yl)pyrimidin-4-yl]piperazin-1-yl}-5-methyl-N-(2,2,2-trifluoroethyl)nicotinamide]
≤ 1	COCCCNC(=O)c1cnc(N2CCN(c3cc(-c4ccc(F)cc4)nc(N4CCCC4C)n3)CC2)c(C)c1 (centres unmarked) [Example 110, 6-{4-[6-(4-fluorophenyl)-2-(2-methylpyrrolidin-1-yl)pyrimidin-4-yl]piperazin-1-yl}-N-(3-methoxypropyl)-5-methylnicotinamide]
≤ 1	Cc1cc(C(=O)NCc2cccs2)cnc1N1CCN(c2cc(-c3ccc(F)cc3)nc(N3CCCC3C)n2)CC1 (centres unmarked) [Example 118, 6-{4-[6-(4-fluorophenyl)-2-(2-methylpyrrolidin-1-yl)pyrimidin-4-yl]piperazin-1-yl}-5-methyl-N-(2-thienylmethyl) nicotinamide]
